# According to patent US12544428B2, “Controlled-release CNP agonists with reduced side-effects” (ASCENDIS PHARMA GROWTH DISORDERS A/S, priority 2016, dated 2026):
# Read-outs that look alike come from different tables or passages of the source.
# Experiments:
# [1] = Evaluation of cardiovascular effects in the conscious telemetered mouse (subcutaneous administration); format: in vivo, Crl:CD1(ICR) mice; details: 800 μg CNP-38 (eq)/kg sc; for MAP: mean ± SD, n = 4
# Text: The purpose of this study was to evaluate the haemodynamic side effects of 11i at dose level equivalent to a CNP-38 dose level eliciting haemodynamic side effects (decrease in blood pressure) in the telemetered mouse.
# Male Crl:CD1(ICR) mice (age range 8-13 weeks and body weight range 27.3-35.6 g at start of dosing) were surgically implanted with a TA11PA-C10 telemetry transmitter (Data Sciences International (DSI)) in the carotid artery. The body of the transmitter was placed subcutaneously in the lateral flank of the mouse. The mice were dosed subcutaneously in a latin square crossover design with at least 72 hours between dosing occasions. Mice were dosed with 1) vehicle (10 mM succinate, 46.0 g/L mannitol, pH 4.00), 2) CNP-38 (800 μg CNP-38/kg, 10 mM succinate, 46.0 g/L mannitol, pH 4.00) or 3) 11i (800 μg CNP-38 eq/kg, 10 mM succinate, 46.0 g/L mannitol, pH 4.00). At least four mice were included at each dose level. Blood pressure (systolic (SAP), diastolic (DAP) and mean (MAP) and heart rate (HR, derived from blood pressure), were recorded using a digital data capture system linked with a DSITM Ponemah data acquisition and analysis system. The capture system allowed recording of the cardiovascular parameters whilst the mice were in individual cages. On the day of each test session the animals were weighed and a predose recording was performed for at least 60 min prior to dosing. Each mouse was returned to the home cage and the cardiovascular parameters were recorded for approximately 48 hours postdose. Blood pressure and HR were reported at the following time points: −30, −20, −10, 5, 15 and 30 min postdose and 1, 2, 6, 12, 18, 24, 30, 36, 42 and 48 hours postdose. Each time point was presented as the average value of five minute's recording prior to the time point. The monitoring period was selected to cover exposure to the test items both prior to and after Tmax.
# [2] = Pharmacokinetic profile of CNP-38 after subcutaneous single-dose administration to cynomolgus monkeys; format: in vivo
# Description: This study was performed in order to test the pharmacokinetics of CNP-38 after subcutaneous (s.c.) administration in cynomolgus monkeys. […] Blood samples were collected at 5, 10, 15, 30, 45 min and 1, 2, 4, 8 hours upon dose.
# Method: Plasma levels of CNP were analysed using a commercially available competitive radioimmuno-assay (RK-012-03, Phoenix Pharmaceuticals, CA). The assay was applied essentially as described by the manufacturer. The assay is based on competitive binding between 125I-labelled CNP (supplied in the kit) and unlabeled CNP (from study sample or calibrants) to an anti-CNP antibody. When the concentration of CNP in the sample increases, the amount of 125I-labelled CNP that is able to bind to the antibody decreases. By measuring the amount of 125I-labelled CNP bound as a function of the concentration of peptide, it is possible to construct a calibration curve from which the concentration of peptide in the sample can be determined.
# A few changes to the supplied assay protocol were made. These changes included using in-house CNP calibrant and QC samples to secure consistency between assay runs. In order to shorten the duration of the assay, the initial incubation of samples with antibodies was performed at room temperature for 5 hours (instead of 16-24 hours at 4° C.). Due to matrix effects in monkey plasma, the minimal required dilution was set at 1:10, yielding an assay range of 150-1080 pg/mL CNP.
# [3] = CNP injection, healthy volunteers; cited from earlier work
# recombinant human NEP = recombinant human NEP (Homo sapiens, UniProt P08473); details: pH 7.4
# Chain of recombinant human NEP (P08473 whole entry): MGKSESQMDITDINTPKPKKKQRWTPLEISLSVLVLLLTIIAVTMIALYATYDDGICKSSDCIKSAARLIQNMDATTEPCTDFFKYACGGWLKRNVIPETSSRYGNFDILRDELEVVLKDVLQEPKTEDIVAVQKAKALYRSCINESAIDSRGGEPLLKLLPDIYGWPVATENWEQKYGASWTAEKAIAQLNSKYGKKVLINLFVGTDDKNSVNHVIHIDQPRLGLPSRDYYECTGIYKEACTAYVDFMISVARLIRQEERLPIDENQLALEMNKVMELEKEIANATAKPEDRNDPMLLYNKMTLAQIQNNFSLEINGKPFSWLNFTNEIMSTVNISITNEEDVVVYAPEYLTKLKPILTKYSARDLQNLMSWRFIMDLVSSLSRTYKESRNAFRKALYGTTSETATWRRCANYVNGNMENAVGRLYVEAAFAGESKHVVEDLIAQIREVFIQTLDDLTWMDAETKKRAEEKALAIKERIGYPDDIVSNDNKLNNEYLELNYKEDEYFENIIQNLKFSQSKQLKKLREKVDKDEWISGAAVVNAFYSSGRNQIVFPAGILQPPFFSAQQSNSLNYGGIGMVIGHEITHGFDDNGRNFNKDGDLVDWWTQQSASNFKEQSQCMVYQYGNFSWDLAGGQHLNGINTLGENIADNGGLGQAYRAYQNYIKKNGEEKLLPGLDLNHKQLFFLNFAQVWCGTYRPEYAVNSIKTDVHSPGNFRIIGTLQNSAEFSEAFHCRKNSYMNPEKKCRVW
# Method: In order to determine the in vitro stability of various CNP variants including different peptide chain lengths and PEGylations using different PEGylation sites and PEG molecules in the presence of Neutral Endopeptidase (NEP), a NEP digest assay was established. This assay monitored the decrease of the non-digested CNP variant (normalized with the internal standard PFP) over time in reference to the t0-time point.
# In detail, recombinant human NEP (2.5 μg/mL final concentration) and the standard pentafluorophenol (PFP; 40 μg/mL final concentration) were added to the CNP variant (100 μg CNP equivalents/mL) in digest buffer (50 mM Tris-HCl, pH 7.4, 10 mM NaCl). The solution was incubated at 37° C. and 500 rpm for up to 4 days. Samples were taken at different time intervals. The reaction was stopped by a combined reduction and heat denaturation adding TCEP (tris(2-carboxyethyl)phosphine; 25 mM final concentration) and incubating the mixture at 95° C., 500 rpm for 5 minutes. The resulting reaction products were assigned using HPLC-MS. The half life of each CNP variant was calculated via the ratio change in the HPLC-UV peak areas of CNP and PFP over time.
# NPR-C = molecular target: T1, NPR-C (Homo sapiens, UniProt P17342); experiment: NPR-C affinity assay; format: binding; details: residual NPR-C affinity, NPR-C expressing Hek293 cells, competition with fluorescein-labelled CNP 27d
# T1 construct: expressed in transfected cells; host or cells: Hek293, lentiviral transduction, CMV promoter, puromycin selection
# T1 sequence (P17342 27-541): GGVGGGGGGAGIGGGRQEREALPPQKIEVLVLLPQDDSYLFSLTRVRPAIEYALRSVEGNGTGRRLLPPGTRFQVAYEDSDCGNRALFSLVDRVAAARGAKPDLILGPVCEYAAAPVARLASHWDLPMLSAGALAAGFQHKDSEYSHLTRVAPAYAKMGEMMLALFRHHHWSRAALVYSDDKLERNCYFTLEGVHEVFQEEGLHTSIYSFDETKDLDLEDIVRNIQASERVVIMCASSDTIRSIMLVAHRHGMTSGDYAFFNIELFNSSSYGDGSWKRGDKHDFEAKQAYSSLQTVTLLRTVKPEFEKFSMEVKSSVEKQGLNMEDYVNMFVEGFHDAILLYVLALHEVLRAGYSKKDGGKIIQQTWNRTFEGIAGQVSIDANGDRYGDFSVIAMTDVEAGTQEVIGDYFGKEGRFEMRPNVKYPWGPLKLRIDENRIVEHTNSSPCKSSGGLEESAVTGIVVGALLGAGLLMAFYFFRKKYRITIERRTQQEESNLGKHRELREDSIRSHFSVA
# NPR-B receptor = molecular target: T2, NPR-B receptor (Mus musculus, UniProt Q6VVW5); experiment: Functional cGMP stimulation in NIH-3T3 cells with CNP variants; format: cell-based, murine; details: residual NPR-B activity vs non-PEGylated CNP-38, cGMP
# T2 construct: These cells express endogenously the NPR-B receptor on the cell surface; endogenous in cells; host or cells: NIH-3T3 (murine embryo fibroblast)
# T2 sequence (Q6VVW5 23-1047 limits assumed): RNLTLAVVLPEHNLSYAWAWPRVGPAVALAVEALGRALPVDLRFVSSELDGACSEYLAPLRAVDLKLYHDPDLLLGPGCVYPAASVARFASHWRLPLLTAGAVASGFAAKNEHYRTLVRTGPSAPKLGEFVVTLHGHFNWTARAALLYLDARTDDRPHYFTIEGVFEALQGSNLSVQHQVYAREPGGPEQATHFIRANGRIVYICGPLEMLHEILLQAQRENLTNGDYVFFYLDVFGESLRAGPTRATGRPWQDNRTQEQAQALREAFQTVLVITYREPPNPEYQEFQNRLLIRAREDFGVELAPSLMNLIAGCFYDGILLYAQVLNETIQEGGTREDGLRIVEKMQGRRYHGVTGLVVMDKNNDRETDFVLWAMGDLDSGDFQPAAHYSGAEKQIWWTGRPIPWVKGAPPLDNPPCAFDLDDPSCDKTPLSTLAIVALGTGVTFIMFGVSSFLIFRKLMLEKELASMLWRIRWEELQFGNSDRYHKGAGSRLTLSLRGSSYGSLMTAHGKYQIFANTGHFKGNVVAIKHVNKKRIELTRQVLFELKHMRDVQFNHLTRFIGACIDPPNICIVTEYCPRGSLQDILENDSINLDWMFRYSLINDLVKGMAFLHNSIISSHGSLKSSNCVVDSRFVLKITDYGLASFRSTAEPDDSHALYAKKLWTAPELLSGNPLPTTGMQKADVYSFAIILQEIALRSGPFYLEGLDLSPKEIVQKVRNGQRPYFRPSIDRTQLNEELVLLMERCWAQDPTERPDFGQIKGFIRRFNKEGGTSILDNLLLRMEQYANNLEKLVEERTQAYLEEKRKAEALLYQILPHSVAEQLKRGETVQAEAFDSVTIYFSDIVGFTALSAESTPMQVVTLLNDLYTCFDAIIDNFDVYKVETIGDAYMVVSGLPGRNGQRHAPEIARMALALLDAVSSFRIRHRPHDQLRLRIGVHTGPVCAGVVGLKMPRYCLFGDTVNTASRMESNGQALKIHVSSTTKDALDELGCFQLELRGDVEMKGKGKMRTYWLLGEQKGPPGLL
# Description: As used herein “EC50” with regard to controlled-release CNP agonist and CNP agonist refers to the concentration of controlled-release CNP agonist and CNP agonist with which a half-maximum cGMP production of NPR-B is elicited. NPR-B activity in the form of its EC50 of the controlled-release CNP agonist, of the released CNP agonist and of CNP-22 is measured by cultivating NIH-3T3 (Murine Embryo Fibroblast cell line) cells which express NPR-B on their cell surface, incubating the cells with the controlled-release CNP agonist, the corresponding released CNP agonist or CNP-22, respectively, and determining the intracellular production of the second messenger cGMP with a standard cGMP assay. In particular the assay is performed as follows: • (1) murine NIH-3T3 cells expressing endogenous NPR-B are cultivated in DMEM F-12 medium with 5% FBS and 5 mM glutamine at 37° C. and 5% CO2; • (2) for each assay 50,000 cells are resuspended in Dulbecco's PBS with IBMX and incubated with either the controlled-release CNP agonist, the corresponding released CNP agonist or CNP-22; each in different concentrations; • (3) after incubating for 30 min at 37° C. and 5% CO2, the cells are lysed and cGMP levels are determined; and • (4) generating an EC50 value from the determined cGMP levels.
# Functional activity of CNP variants were determined in a cell-based assay with NIH-3T3 cells (Murine Embryo Fibroblast cell line). These cells express endogenously the NPR-B receptor on the cell surface. Stimulation of the NPR-B receptor with CNP leads to intracellular production of the second messenger cGMP which is detected with a commercially available cGMP assay. NIH-3T3 cells were routinely cultured in DMEM F-12 medium with 5% FBS and 5 mM glutamine at 37° C. and 5% CO2. For each assay, 50,000 cells were resuspended in stimulation buffer (Dulbecco's PBS with IBMX) and incubated with the CNP variants in different concentrations. CNP (dilutions were made in PBS with 0.2% BSA). After incubation of 30 min at 37° C. and 5% CO2, the cells were lyzed and cGMP levels were determined with a commercially available cGMP TR-FRET assay (Cisbio, cGMP kit, Cat. No. 62GM2PEB). PEGylated CNP variants were always characterized in comparison with the non-PEGylated version in the same experiment batch. If possible, evaluation of the residual activity was done via the relative EC50-parameter of the resulting dose-response curve (restricted model with common slope).
# 11i was incubated under physiological conditions (1 mg CNP-38 eq/mL), as described in Example 20. After 7 d, released CNP-38 was isolated by RP-HPLC and analyzed for bioactivity as described in Example 21.
# [4] = after iv administration; cited from earlier work
compound,measurement,setting,value
"CC[C@H](C)[C@@H]1NC(=O)[C@H](CCCNC(=N)N)NC(=O)[C@H](CC(=O)O)NC(=O)[C@H](CC(C)C)NC(=O)[C@H](CCCCN)NC(=O)[C@H](CC(C)C)NC(=O)CNC(=O)[C@H](Cc2ccccc2)NC(=O)[C@@H](NC(=O)CNC(=O)[C@H](CCCCN)NC(=O)[C@H](CO)NC(=O)[C@H](CC(C)C)NC(=O)CNC(=O)[C@H](CCCCN)NC(=O)[C@H](CCCCN)NC(=O)[C@H](CC(N)=O)NC(=O)[C@H](C)NC(=O)CNC(=O)[C@H](CCCCN)NC(=O)[C@H](Cc2ccc(O)cc2)NC(=O)[C@H](CCCCN)NC(=O)[C@H](CCCNC(=N)N)NC(=O)[C@H](C)NC(=O)[C@H](CC(N)=O)NC(=O)[C@@H]2CCCN2C(=O)[C@H](Cc2c[nH]cn2)NC(=O)[C@H](CCC(=O)O)NC(=O)[C@H](CCC(N)=O)NC(=O)[C@@H](N)CC(C)C)CSSC[C@@H](C(=O)O)NC(=O)CNC(=O)[C@H](CC(C)C)NC(=O)CNC(=O)[C@H](CO)NC(=O)[C@H](CCSC)NC(=O)[C@H](CO)NC(=O)CNC1=O [CNP-38, reference compound]",HR,[1],not impacted
same,MAP versus vehicle at the remaining ten time points,[1]; 1 to 48 hours postdose,no difference in MAP
same,change in MAP compared to predose,"[1]; 5, 15 and 30 min post dose, CNP-38: 3 of 4 animals",significant decrease in MAP
same,MAP,[1]; 5 min post dose,102.0 ± 7.5 mmHg
same,MAP,[1]; 15 min post dose,89.5 ± 29.4 mmHg
same,MAP,[1]; 30 min post dose,99.5 ± 25.2 mmHg
same,MAP,[1]; predose,106.8 ± 13.4 mmHg
same,Half-life (mean),"[2]; cynomolgus monkey, in vivo, sc, 40 ug/kg",6.6 min
same,half-life,"[2]; male, cynomolgus monkey, in vivo, sc, 40 ug/kg",~7 min
same,tolerability,[2]; single s.c. 40 μg/kg,well tolerated
CNP: natriuretic peptide CNP injected in healthy volunteers (Igaki et al.),heart rate,[3],significant increase in heart rate
same,systolic and diastolic blood pressure,[3],transient but significant decrease in both systolic and diastolic blood pressure
Permanent Lys16 CNP-34 PEG 5 kDa Conjugate [Compound 17e],half-life,recombinant human NEP,54.2 h
Permanent Lys26 CNP-38 PEG 5 kDa Conjugate [Compound 19e],IC50 of PEGylated CNP-38/IC50 CNP-38,NPR-C,1.1
same,half-life,recombinant human NEP,62.8 h
same,EC50 compound/EC50 CNP-38,NPR-B receptor,>100
CC[C@H](C)[C@@H]1NC(=O)[C@H](CCCNC(=N)N)NC(=O)[C@H](CC(=O)O)NC(=O)[C@H](CC(C)C)NC(=O)[C@H](CCCCN)NC(=O)[C@H](CC(C)C)NC(=O)CNC(=O)[C@H](Cc2ccccc2)NC(=O)[C@@H](NC(=O)CNC(=O)[C@H](CCCCN)NC(=O)[C@H](CO)NC(=O)[C@H](CC(C)C)NC(=O)CN)CSSC[C@@H](C(=O)O)NC(=O)CNC(=O)[C@H](CC(C)C)NC(=O)CNC(=O)[C@H](CO)NC(=O)[C@H](CCSC)NC(=O)[C@H](CO)NC(=O)CNC1=O [CNP-22],half-life,[4],2 min
Permanent Lys22 CNP-34 PEG 5 kDa Conjugate [Compound 18e],half-life,recombinant human NEP,38.9 h
